Data published in paper PMC12686497, “Exploring neurokinin-1 receptor antagonism for depression with structurally differentiated inhibitors” (Experimental & Molecular Medicine, 2025).
pIC50: −log10 of the molar value.

How the values were obtained:
[1] = test system: IL-1β, TNF-α and IL-6 mRNA; assay: qRT-PCR of proinflammatory cytokine mRNA in frontal cortex and hippocampus, LPS model; format: in vivo, C57BL/6 mice; conditions: 10 mg/kg i.p., 4 h after LPS, vs LPS-treated group
Description: (§1) The ligands were dissolved at a dose of 10 mg/kg in the vehicle (10% dimethyl sulfoxide and 10% Kolliphor in 0.9% saline) and intraperitoneally injected into each animal in experimental groups.
(§2) To generate the lipopolysaccharide (LPS) model, 0.25 mg/kg of LPS from E. coli O26:B6 (Sigma, L3755) was dissolved in 0.9% saline and injected intraperitoneally. The control group was treated with 0.9% saline instead of LPS injection. The mice received injections of either vehicle, compound #1, compound #15 or Aprepitant (Tocris Bioscience) on day 1, 1 h before LPS injection and on day 2.
Four hours after LPS injection, the frontal lobe and hippocampus were isolated from the animal brain and placed in TRIzol solution (Ambion). Total RNA sample (2 μg) was reverse-transcribed into cDNA using Moloney Murine Leukemia Virus reverse transcriptase (M-MLV RT; Promega) and oligo (dT) primer (Novagen). Quantitative reverse transcription polymerase chain reaction (qRT–PCR), which quantifies gene expression levels, was performed using 0.5 μg of the reverse-transcription generated cDNA and specific primer sets (Supplementary Table 3). PCR amplification with iQ SYBR Green Supermix was performed in triplicate using the CFX96 Touch-Time System (Bio-Rad). The final products of qRT–PCR were electrophoresed on 2% agarose gels and visualized with SafeView Nucleic Acid Stain (G108, Applied Biological Materials). Cycle threshold (Ct) values at which the fluorescent signal exceeded the background were determined by qRT–PCR, and expression values for each gene were normalized to expression values of GAPDH. Relative quantification to calculate fold change was performed using the comparative Ct method (ΔΔCt).

[2] = test system: LPS-induced depressive-like behavior; assay: Tail suspension test (TST) in LPS model; format: in vivo, C57BL/6 mice; conditions: 10 mg/kg i.p., vs LPS-treated group
Description: as §1, §2
On day 4 after LPS administration, the tail suspension test (TST) was conducted. A four-chamber apparatus divided by nontransparent acrylic partitions was used, and the mice were suspended in each chamber by the tail. A video was recorded for 6 min, and the last 4 min were manually scored for immobility time.

[3] = biological target: T1, NK1R (hTACR1-HEK293 cells) (Homo sapiens, UniProt P25103); assay: FLIPR calcium 6 assay, SP-induced intracellular calcium mobilization; format: cell-based; conditions: 1 nM SP
T1 construct: expressed in transfected cells; host or cells: HEK293
Description: The following day, the cells were loaded with the FLIPR calcium 6 dye mixed at 1:1 to medium with 2.5 mM probenecid. The assay plate was wrapped with aluminum foil and incubated for 2 h at 37 °C in a humidified CO2 incubator. Each concentration of chemicals was dissolved in 1× Hank’s Balanced Salt Solution (plus 20 mM HEPES buffer, pH 7.4) and added to the well. The plate was incubated for 30 min at 37 °C before measuring. The final concentration of dimethyl sulfoxide was 0.5% in each well. Then, 1 nM SP-induced intracellular calcium mobilization was examined by monitoring the fluorescence intensity (excitation at 485 nm, emission at 525 nm, cutoff filter set at 515 nm) using a Flex Station 3 multimode microplate reader. Changes in fluorescence signal after SP addition were normalized to its starting signal and denoted as F/F0.

[4] = test system: RS-induced despair-like behavior; assay: Forced swim test (FST) in restraint stress (RS) model; format: in vivo, C57BL/6 mice; conditions: 10 mg/kg i.p. day 11 to 20
Description: as §1
To induce depressive-like behaviors in mice, restraint stress (RS) was applied using 50-ml conical tubes with many holes for 20 days, 2 h per day. From day 11 to 20, mice received injections of either vehicle or compound #15.
(§3) On day 21 in the RS model and day 12 in the SI model, the forced swim test (FST) was performed. During each trial, mice were placed in a test cylinder (diameter 15 cm, height 25 cm) filled with water regulated at 25 ± 1 °C, and a video was recorded for 6 min. Immobility time was manually scored during the last 4 min of each trial.

[5] = test system: SI-induced despair-like behavior; assay: Forced swim test (FST) in social isolation (SI) stress model; format: in vivo, C57BL/6 mice; conditions: 10 mg/kg i.p. day 6 to 13
Description: as §1
To generate the social isolation (SI) stress model, the animals were single-caged for 14 days. From day 6 to 13, mice received injections of either vehicle or compound #15.
as §3

T1 sequence (P25103 whole entry): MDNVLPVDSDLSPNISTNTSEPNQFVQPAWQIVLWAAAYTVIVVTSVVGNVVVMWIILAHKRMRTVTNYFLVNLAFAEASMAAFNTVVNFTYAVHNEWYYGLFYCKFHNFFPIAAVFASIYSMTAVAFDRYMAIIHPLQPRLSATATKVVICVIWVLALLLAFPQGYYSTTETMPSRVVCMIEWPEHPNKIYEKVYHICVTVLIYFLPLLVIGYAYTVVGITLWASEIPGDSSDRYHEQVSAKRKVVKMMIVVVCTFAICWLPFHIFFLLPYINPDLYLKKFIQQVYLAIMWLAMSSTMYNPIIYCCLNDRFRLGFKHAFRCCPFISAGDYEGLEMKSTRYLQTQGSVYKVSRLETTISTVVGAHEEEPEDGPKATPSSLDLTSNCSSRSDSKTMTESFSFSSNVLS

| NK1R antagonistic / inhibitory activity (in words) [3] | SMILES | IL-6 mRNA level ([1]; frontal cortex) | TNF-α mRNA level ([1]; frontal cortex) | IL-1β mRNA level ([1]; hippocampus) | IL-6 mRNA level ([1]; hippocampus) | TNF-α mRNA level ([1]; hippocampus) | immobility time in TST [2] | further results |
| --- | --- | --- | --- | --- | --- | --- | --- | --- |
|  | C[C@@H](O[C@H]1OCCN(Cc2n[nH]c(=O)[nH]2)[C@H]1c1ccc(F)cc1)c1cc(C(F)(F)F)cc(C(F)(F)F)c1 [Aprepitant, reference compound] | significantly reduced | significantly reduced | significantly reduced | significantly reduced | significantly reduced | significant reduction in immobility time |  |
| weaker inhibitory effects | Cc1cc(F)ccc1C1CCN(C(=O)NC2CCOC3(CCOC3)C2)CC1 (stereo not shown) [#3] |  |  |  |  |  |  |  |
|  | COc1ccc(-c2[nH]c3ccc(F)cc3c2CCC(=O)NC(C)c2ccc(-n3cncn3)cc2)cc1 (stereo not shown) [#1] | significantly reduced | significantly reduced | significantly reduced | significantly reduced | significantly reduced | significant reduction in immobility time | IC50 (in words) [3]: single-digit micromolar |
| weaker inhibitory effects | COc1ccc(C(C)=O)cc1CC(=O)N(C)Cc1cc(Br)ccc1OC [#2] |  |  |  |  |  |  |  |
|  | Cc1ccc2[nH]c(-c3ccc(Br)cc3)c(CCC(=O)NC(c3ccc(C(C)C)cc3)C(C)C)c2c1 (stereo not shown) [#15] |  |  |  |  |  | significantly reduced immobility time | pIC50 [3]: 7.10; immobility time in FST [4]: notable reduction in immobility time; immobility time in FST [5]: notable reduction in immobility time |
